PubChem BioAssay AID256 (DTP/NCI, 2004)
Toxic doses and inconclusive results are not listed. How the source made its calls: active means survival T/C of 150% or more; inactive means T/C below 125% in these data.

Test system: CD2F1 mice, L1210 leukemia ip, survival T/C
Experiment: NCI In Vivo Anticancer Drug Screen. Data for tumor model L1210 Leukemia (intraperitoneal) in CD2F1 (CDF1) mice
Conditions: endpoint: mean survival time, higher = longer survival
Outline: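 In this screen, transplantable tumors were grown in mice given either the compound or its vehicle. Results were expressed as the treated measurement relative to the control measurement.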

[1] = dose: 100.0 mg/kg/injection, schedule: Q04DX003 (ip), vehicle: saline with Tween-80
[2] = dose: 200.0 mg/kg/injection, schedule: Q04DX003 (ip), vehicle: saline with Tween-80
[3] = dose: 400.0 mg/kg/injection, schedule: Q04DX003 (ip), vehicle: saline with Tween-80

Measured: T/C

Nc1ccc(S(=O)(=O)Nc2ccccc2O)cc1
inactive: dose: 3.0 mg/kg/injection, schedule: Q01DX001 (ip), vehicle: saline with Tween-80 103 % of control | dose: 6.25 mg/kg/injection, schedule: Q01DX001 (ip), vehicle: saline with Tween-80 103 % of control | dose: 12.5 mg/kg/injection, schedule: Q01DX001 (ip), vehicle: saline with Tween-80 103 % of control | dose: 25.0 mg/kg/injection, schedule: Q01DX001 (ip), vehicle: saline with Tween-80 102 % of control | dose: 50.0 mg/kg/injection, schedule: Q01DX001 (ip), vehicle: saline with Tween-80 102 % of control

O=c1c(Br)cocc1Br
inactive: dose: 100.0 mg/kg/injection, schedule: Q04DX003 (ip), vehicle: saline sonified 104 % of control | dose: 200.0 mg/kg/injection, schedule: Q04DX003 (ip), vehicle: saline sonified 102 % of control | dose: 400.0 mg/kg/injection, schedule: Q04DX003 (ip), vehicle: saline sonified 102 % of control

COc1ccc([N+](=O)[O-])cc1NC(=O)Nc1cccc(C(F)(F)F)c1
inactive: dose: 50.0 mg/kg/injection, schedule: Q01DX001 (ip), vehicle: Klucel (hydroxypropylcellulose) (HPC) 101 % of control | dose: 100.0 mg/kg/injection, schedule: Q01DX001 (ip), vehicle: Klucel (hydroxypropylcellulose) (HPC) 96 % of control | dose: 200.0 mg/kg/injection, schedule: Q01DX001 (ip), vehicle: Klucel (hydroxypropylcellulose) (HPC) 93 % of control

N#CCCc1c(O)ccc2ccccc12
inactive: [1] 86 % of control | [2] 92 % of control | [3] 86 % of control

CCOC(=O)CC(=O)COC(=O)CC(=O)OCC
inactive: dose: 12.5 mg/kg/injection, schedule: Q01DX009 (ip), vehicle: other 96 % of control | dose: 25.0 mg/kg/injection, schedule: Q01DX009 (ip), vehicle: other 100 % of control | dose: 50.0 mg/kg/injection, schedule: Q01DX009 (ip), vehicle: other 94 % of control | dose: 100.0 mg/kg/injection, schedule: Q01DX009 (ip), vehicle: other 97 % of control | dose: 200.0 mg/kg/injection, schedule: Q01DX009 (ip), vehicle: other 97 % of control

CC1OC(OC(=O)c2ccc([N+](=O)[O-])cc2)CC(NC(=O)C(F)(F)F)C1OC(=O)c1ccc([N+](=O)[O-])cc1 (stereo not given)
inactive: dose: 25.0 mg/kg/injection, schedule: Q01DX005 (ip), vehicle: Klucel (hydroxypropylcellulose) (HPC) 94 % of control | dose: 50.0 mg/kg/injection, schedule: Q01DX005 (ip), vehicle: Klucel (hydroxypropylcellulose) (HPC) 89 % of control

CN(CC(=O)O)C(=S)c1ccccc1
inactive: [1] 98 % of control | [2] 104 % of control | [3] 95 % of control

CS(=O)CSCC(N)C(=O)O (stereo not given)
inactive: dose: 12.5 mg/kg/injection, schedule: Q01DX009 (ip), vehicle: water 107 % of control | dose: 25.0 mg/kg/injection, schedule: Q01DX009 (ip), vehicle: water 100 % of control | dose: 50.0 mg/kg/injection, schedule: Q01DX009 (ip), vehicle: water 102 % of control | dose: 100.0 mg/kg/injection, schedule: Q01DX009 (ip), vehicle: water 102 % of control | dose: 200.0 mg/kg/injection, schedule: Q01DX009 (ip), vehicle: water 100 % of control

O=C(C[n+]1cccc(C(=O)c2ccccc2)c1)c1ccccc1
inactive: dose: 9.4 mg/kg/injection, schedule: Q01DX009 (ip), vehicle: saline 94 % of control | dose: 18.8 mg/kg/injection, schedule: Q01DX009 (ip), vehicle: saline 94 % of control | dose: 37.5 mg/kg/injection, schedule: Q01DX009 (ip), vehicle: saline 93 % of control | dose: 37.5 mg/kg/injection, schedule: Q04DX003 (ip), vehicle: saline 96 % of control | dose: 75.0 mg/kg/injection, schedule: Q01DX001 (ip), vehicle: saline 100 % of control | dose: 75.0 mg/kg/injection, schedule: Q04DX003 (ip), vehicle: saline 94 % of control | dose: 150.0 mg/kg/injection, schedule: Q01DX001 (ip), vehicle: saline 97 % of control

O=C(O)c1ccccc1N=Cc1ccccc1O
inactive: dose: 100.0 mg/kg/injection, schedule: Q01DX009 (ip), vehicle: saline with Tween-80 96 % of control | [1] 103 % of control | dose: 200.0 mg/kg/injection, schedule: Q01DX009 (ip), vehicle: saline with Tween-80 96 % of control | [2] 113 % of control | dose: 400.0 mg/kg/injection, schedule: Q01DX009 (ip), vehicle: saline with Tween-80 102 % of control | [3] 105 % of control

O=C1CC(c2ccccc2)CC(=O)O1
inactive: [1] 102 % of control | [2] 100 % of control | [3] 92 % of control
